Test results reported in patent publication US9737545B2 (MERCK SHARP & DOHME CORP., priority 2013, dated 2017).

Each compound was assayed against T1, wildtype HIV-1 protease (Human immunodeficiency virus type 1 group M subtype B, UniProt P04585) (assay: Assay for Inhibition of Microbial Expressed HIV Protease (Pepcleav)).
T1 construct: preincubated with the HIV-1 protease (wild type) enzyme in assay buffer; made in house; host or cells: Escherichia coli
Type: biochemical
Description: Assay for Inhibition of Microbial Expressed HIV Protease (“Pepcleav”)
Studies of the inhibition of the wildtype HIV-1 protease (which was expressed in Escherichia coli) were carried out with a peptide substrate [Val-Ser-Gln-Asn-(βnaphthyl)Ala-Pro-Ile-Val (SEQ ID NO: 1)]. The inhibitor was first preincubated with the HIV-1 protease (wild type) enzyme in assay buffer (50 mM sodium acetate, pH 5.5, 100 mM NaCl, and 0.1% BSA) for 30 minutes at room temperature. Substrate was added to 400 micromolar in a total volume of 20 microliters containing 20 picomolar HIV-1 protease (final) and the reaction was incubated for 1 hour at 30° C. The reaction was quenched with the addition of formic acid and indinavir to 0.012% and 150 nM final concentrations, respectively. The product formation was determined after separation of product and substrate on a Zorbax Eclipse XDB-C18 column connected to an API 4000 mass spectrometer (Applied Biosystems) with multiple reaction monitoring (transitions were 644.5/428.9 and 615.4/422.2 (M1/M3) for product and indinavir respectively). The extent of inhibition of the reaction was determined from the peak area of the products. Analysis of the products, independently synthesized, provided quantitation standards and confirmation of the product composition.

Row | Structure (SMILES) | IC50
1 | COC(=O)N[C@H](C(=O)Nc1cncc(F)c1CC[C@@H]1CN[C@H](c2nc3ccccc3[nH]2)CO1)C(c1ccc(F)cc1)c1ccc(F)cc1 [Example 72, N-(4-{2-[(2R,5R)-5-(1H-benzimidazol-2-yl)morpholin-2-yl]ethyl}-5-fluoropyridin-3-yl)-4-fluoro-β-(4-fluorophenyl)-Nα-(methoxycarbonyl)-L-phenylalaninamide] | 0.01 nM
2 | COC(=O)N[C@H](C(=O)Nc1ccccc1CC[C@@H]1CN[C@H](c2nc3ccc(Br)cc3[nH]2)CO1)C(c1ccccc1)c1ccccc1 [Example 11, methyl N-[(1S)-1-benzhydryl-2-[[2-[2-[(2R,5R)-5-(6-bromo-1H-benzimidazol-2-yl)morpholin-2-yl]ethyl]phenyl]amino]-2-oxo-ethyl]carbamate] | 0.411 nM
3 | Cc1cc2nc([C@@H]3CO[C@H](CCc4c(F)cncc4NC(=O)[C@@H](N)C(c4ccc(F)cc4)c4ccc(F)cc4)CN3)[nH]c2cc1C [Example 92, N-(4-{2-[(2R,5R)-5-(5,6-dimethyl-1H-benzimidazol 2-yl)morpholin-2-yl]ethyl}-5-fluoropyridin-3-yl)-4-fluoro-β-(4-fluorophenyl)-L-phenylalaninamide] | 0.06 nM
4 | COC(=O)N[C@H](C(=O)Nc1ccccc1CC[C@@H]1CN[C@H](c2cc3ccc(Cl)cc3[nH]2)CO1)C(c1ccccc1)c1ccccc1 [Example 58, N-(2-{2-[(2R,5R)-5-(6-chloro-1H-indol-2-yl)morpholin-2-yl]ethyl}phenyl)-Nα-(methoxycarbonyl)-β-phenyl-L-phenylalaninamide] | 76.2 nM
5 | COC(=O)N[C@H](C(=O)Nc1ccccc1CC[C@@H]1CN[C@H](c2cc3cc(C)ccc3[nH]2)CO1)C(c1ccccc1)c1ccccc1 [Example 54, Nα-(methoxycarbonyl)-N-(2-{2-[(2R,5R)-5-(5-methyl-1H-indol-2-yl)morpholin-2-yl]ethyl}phenyl)-β-phenyl-L-phenylalaninamide] | 143 nM
6 | COC(=O)N[C@H](C(=O)Nc1ccccc1CC[C@@H]1CN[C@H](c2nc3cc(Cl)c(Cl)cc3[nH]2)CO1)C(c1ccccc1)c1ccccc1 [Example 85] | 0.4 nM
7 | Cc1cc2nc([C@@H]3CO[C@H](COc4c(F)cccc4NC(=O)C[C@@H](c4ccc(F)cc4)c4cc(F)cc(F)c4)CN3)[nH]c2cc1C [Example 104, (3S)-3-(3,5-difluorophenyl)-N-(2-{[(2S,5R)-5-(5,6-dimethyl-1H-benzimidazol-2-yl)morpholin-2-yl]methoxy}-3-fluorophenyl)-3-(4-fluorophenyl) propanamide] | 1.1 nM
8 | COC(=O)N[C@H](C(=O)Nc1ccccc1CC[C@@H]1CN[C@H](c2nc3cc(Cl)c(C)cc3[nH]2)CO1)C(c1ccccc1)c1ccccc1 [Example 22, methyl N-[(1S)-1-benzhydryl-2-[[2-[2-[(2R,5R)-5-(5-chloro-6-methyl-1H-benzimidazol-2-yl)morpholin-2-yl]ethyl]phenyl]amino]-2-oxo-ethyl]carbamate] | 1.93 nM
9 | COC(=O)N[C@H](C(=O)Nc1ccccc1CC[C@@H]1CN[C@H](c2nc3c(O)cccc3[nH]2)CO1)C(c1ccccc1)c1ccccc1 [Example 15, methyl N-[(1S)-1-benzhydryl-2-[[2-[2-[(2R,5R)-5-(4-hydroxy-1H-benzimidazol-2-yl)morpholin-2-yl]ethyl]phenyl]amino]-2-oxo-ethyl]carbamate] | 0.0559 nM
10 | COC(=O)N[C@H](C(=O)Nc1ccccc1CC[C@@H]1CN[C@H](c2nc3c(F)c(F)c(F)cc3[nH]2)CO1)C(c1ccccc1)c1ccccc1 [Example 17, methyl N-[(1S)-1-benzhydryl-2-oxo-2-[[2-[2-[(2R,5R)-5-(4,5,6-trifluoro-1H-benzimidazol-2-yl)morpholin-2-yl]ethyl]phenyl]amino]ethyl]carbamate] | 0.0747 nM
11 | COC(=O)N[C@H](C(=O)Nc1c(CC[C@@H]2CN[C@H](c3nc4cc(C)c(C)cc4[nH]3)CO2)cc[nH]c1=O)C(c1ccccc1)c1ccccc1 [Example 35, methyl N-[(1S)-1-benzhydryl-2-[[4-[2-[(2R,5R)-5-(5,6-dimethyl-1H-benzimidazol-2-yl)morpholin-2-yl]ethyl]-2-oxo-1H-pyridin-3-yl]amino]-2-oxo-ethyl]carbamate] | 0.159 nM
12 | COC(=O)N[C@H](C(=O)Nc1ccccc1CC[C@@H]1CN[C@H](c2cnc(C)[nH]2)CO1)C(c1ccccc1)c1ccccc1 [Example 47, Nα-(methoxycarbonyl)-N-(2-{2-[(2R,5R)-5-(2-methyl-1H-imidazol-5-yl)morpholin-2-yl]ethyl}phenyl)-β-phenyl-L-phenylalaninamide] | 378 nM
13 | COC(=O)N[C@H](C(=O)Nc1ccccc1CC[C@@H]1CN[C@H](c2cc3cc(C(F)(F)F)ccc3[nH]2)CO1)C(c1ccccc1)c1ccccc1 [Example 55] | 152 nM
14 | COC(=O)N[C@H](C(=O)Nc1ccccc1CC[C@@H]1CN[C@H](c2cc3c(Cl)cccc3[nH]2)CO1)C(c1ccccc1)c1ccccc1 [Example 60, N-(2-{2-[(2R,5R)-5-(4-chloro-1H-indol-2-yl)morpholin-2-yl]ethyl}phenyl)-Nα-(methoxycarbonyl)-β-phenyl-L-phenylalaninamide] | 88.6 nM
15 | COC(=O)N[C@H](C(=O)Nc1cccc(F)c1CC[C@@H]1CN[C@H](c2nc3cc(C)c(C)cc3[nH]2)CO1)C(c1ccccc1)c1ccccc1 [Example 29, N-(2-{2-[(2R,5R)-5-(5,6-dimethyl-1H-benzimidazol-2-yl)morpholin-2-yl]ethyl}-3-fluorophenyl)-Na-(methoxycarbonyl)-b-phenyl-L-phenylalaninamide] | 0.0127 nM
16 | COC(=O)N[C@H](C(=O)Nc1ccccc1CC[C@@H]1CN[C@H](c2nc3ccc(C)cc3[nH]2)CO1)C(c1ccccc1)c1ccccc1 [Example 4, methyl N-[(1S)-1-benzhydryl-2-[[2-[2-[(2R,5R)-5-(6-methyl-1H-benzimidazol-2-yl)morpholin-2-yl]ethyl]phenyl]amino]-2-oxo-ethyl]carbamate] | 0.0923 nM
17 | COC(=O)N[C@H](C(=O)Nc1ccccc1CC[C@@H]1CN[C@H](c2nc3ccncc3[nH]2)CO1)C(c1ccccc1)c1ccccc1 [Example 5, methyl N-[(1S)-1-benzhydryl-2-[[2-[2-[(2R,5R)-5-(3H-imidazo[4,5-c]pyridin-2-yl)morpholin-2-yl]ethyl]phenyl]amino]-2-oxo-ethyl]carbamate] | 7.41 nM
18 | COC(=O)N[C@H](C(=O)Nc1ccccc1CC[C@@H]1CN[C@H](c2cc3cccnc3[nH]2)CO1)C(c1ccccc1)c1ccccc1 [Example 62, Nα-(methoxycarbonyl)-β-phenyl-N-(2-{2-[(2R,5R)-5-(1H-pyrrolo[2,3-b]pyridin-2-yl)morpholin-2-yl]ethyl}phenyl)-L-phenylalaninamide] | 156 nM
19 | COC(=O)N[C@H](C(=O)Nc1ccccc1CC[C@@H]1CN[C@H](c2nc3ccc(C#N)cc3[nH]2)CO1)C(c1ccccc1)c1ccccc1 [Example 10, methyl N-[(1S)-1-benzhydryl-2-[[2-[2-[(2R,5R)-5-(6-cyano-1H-benzimidazol-2-yl)morpholin-2-yl]ethyl]phenyl]amino]-2-oxo-ethyl]carbamate] | 1.59 nM
20 | COC(=O)N[C@H](C(=O)Nc1ccccc1CC[C@@H]1CN[C@H](c2nc3cccc(Br)c3[nH]2)CO1)C(c1ccccc1)c1ccccc1 [Example 14, methyl N-[(1S)-1-benzhydryl-2-[[2-[2-[(2R,5R)-5-(7-bromo-1H-benzimidazol-2-yl)morpholin-2-yl]ethyl]phenyl]amino]-2-oxo-ethyl]carbamate] | 0.592 nM
21 | COC(=O)N[C@H](C(=O)Nc1ccccc1CC[C@@H]1CN[C@H](c2cc3cnccc3[nH]2)CO1)C(c1ccccc1)c1ccccc1 [Example 61, Nα-(methoxycarbonyl)-β-phenyl-N-(2-{2-[(2R,5R)-5-(1H-pyrrolo[3,2-c]pyridin-2-yl)morpholin-2-yl]ethyl}phenyl)-L-phenylalaninamide] | 550 nM
22 | COC(=O)N[C@H](C(=O)Nc1ccccc1CC[C@@H]1CN[C@H](c2cn(Cc3ccccc3)nn2)CO1)C(c1ccccc1)c1ccccc1 [Example 50, N-(2-{2-[(2R,5R)-5-(1-benzyl-1H-1,2,3-triazol-4-yl)morpholin-2-yl]ethyl}phenyl)-Nα-(methoxycarbonyl)-β-phenyl-L-phenylalaninamide] | 36.3 nM
23 | COC(=O)N[C@H](C(=O)Nc1ccccc1CC[C@@H]1CN[C@H](c2ncc[nH]2)CO1)C(c1ccccc1)c1ccccc1 [Example 86] | 1.8 nM
24 | COC(=O)N[C@H](C(=O)Nc1ccccc1CC[C@@H]1CN[C@H](c2nc3c(F)cccc3[nH]2)CO1)C(c1ccccc1)c1ccccc1 [Example 28, N-(2-{2-[(2R,5R)-5-(4-fluoro-1H-benzimidazol-2-yl)morpholin-2-yl]ethyl}phenyl)-Na-(methoxycarbonyl)-b-phenyl-L-phenylalaninamide] | 0.122 nM
25 | COC(=O)N[C@H](C(=O)Nc1ccccc1CC[C@@H]1CN[C@H](c2nc(C)c(C)[nH]2)CO1)C(c1ccccc1)c1ccccc1 [Example 48, N-(2-{2-[(2R,5R)-5-(4,5-dimethyl-1H-imidazol-2-yl)morpholin-2-yl]ethyl}phenyl)-Nα-(methoxycarbonyl)-β-phenyl-L-phenylalaninamide] | 1.81 nM
26 | N[C@H](C(=O)Nc1cncc(F)c1CC[C@@H]1CN[C@H](c2nc3cc(F)c(F)cc3[nH]2)CO1)C(c1ccc(F)cc1)c1ccc(F)cc1 [Example 75, N-(4-{2-[(2R,5R)-5-(5,6-difluoro-1H-benzimidazol-2-yl)morpholin-2-yl]ethyl}-5-fluoropyridin-3-yl)-4-fluoro-β-(4-fluorophenyl)-L-phenylalaninamide] | 0.01 nM
